SMILES strings stand for the structures.

Usually melting point stands for the temperature, or range, at which the solid turns liquid.

In the case of `COc1cc(-c2cc(-c3ccc(-c4c(Cc5ccccc5)sc5ccccc45)cc3)ccc2OCC(=O)O)cc(OC)c1OC`, the melting point fell in the range of 93 to 94 °C.

`c1ccc(C(NC23CC4CC(C2)CC(OCc2ccc(-c5nc6ccccc6o5)cc2)(C4)C3)(c2ccccc2)c2ccccc2)cc1` registered a melting point of 174 to 177 °C.

Turning to `Cc1cc(C#N)cc(C)c1Oc1cc(Cl)nc(Cl)n1`, the melting point was in the range of 208 to 210 °C.

Compound `CCCCNC(=O)c1ccc(S(=O)(=O)NC(=O)c2ccc(C(=O)NCC(=O)OC)nc2)cc1` gave a melting point of 215 to 217 °C.

With `CCCCCc1nc(-c2ccccc2)c(CCC(=O)O)o1`, the melting point lay within 80 to 81 °C.

In turn, `COc1cc2ncnc(N3CCc4ccc(C(C)C)cc43)c2cc1OC` displayed a melting point of 128 to 129 °C.

`CCOC(=O)C1=C(c2cccs2)Nc2n[nH]cc2C1c1ccccc1Cl` (centres undefined): the melting point was found to be 200 °C.

Compound `CSC(=C[N+](=O)[O-])NCCSCc1ccccn1` gave a melting point of 95.5 to 96.5 °C.

The compound `CCOP(=O)(OCC)C(c1cccnc1)C(O)c1ccccc1` (centres undefined) displayed a melting point of 238 °C.

Take `Cc1[nH]c(/C=C2\C(=O)Nc3cc(NC(=O)c4cccn(-c5ccc(F)cc5)c4=O)ccc32)c(C)c1CC(=O)O`: the melting point is over 300 °C.

Regarding `C(=C\c1nc2ccccc2n1-c1ccncc1)/c1ccccc1`, the melting point is 168 to 169 °C.

On to `CC(C)(CO)c1ccc(C(=O)Nc2cn3cc(-c4ccsc4)ccc3n2)cc1`, for which the melting point was 250 to 252 °C.

For `CC(c1oc2ccccc2c(=O)c1-c1cccc(F)c1)n1nc(-c2cc3ccccc3s2)c2c(N)ncnc21` (centres undefined), the melting point lay in the range of 242 to 245 °C.

With `O=C(O)CCC(Cc1ccc(Cl)c(Cl)c1)(C(=O)C=Cc1ccc(Cl)cc1)c1ccccc1` (centres undefined), the melting point lay within 155 to 156 °C.

The compound `COc1ccc(-c2cnc(N)c(Cc3ccccc3)n2)cc1` gave a melting point of 150 to 153 °C.

On to `COc1cc2c(cc1F)C1(CO2)C(=O)N(Cc2ccccn2)c2ccccc21` (centres undefined), for which the melting point fell in the range of 142 to 144 °C.

The compound `O=C(N1CCOCC1)n1nc2c(Cl)c(Cl)c(Cl)c(Cl)c2n1` gave a melting point of 194 °C.

For the compound `CN(CC1OCCO1)c1nccc(Oc2ccc(NC(=O)c3cc(F)cc(N4CCCCC4)c3)c3ccccc23)n1`, the melting point is 125 to 127 °C.

In turn, `Nc1c(-c2ccc(I)cc2)nc2ccc(Cl)cc2c1C(=O)O` showed a melting point of 243 to 245 °C.

As for `CC(C)CCn1ccc(-c2ccc(NC3CCOCC3)cc2)c(Cl)c1=O`, the melting point is over 300 °C.

Regarding `COc1ccnc(CCc2nc3cc(-c4ccc(OCc5ccccc5)cc4)cnc3[nH]2)c1`, the melting point was 161 to 162 °C.

Compound `O=C(O)C(NS(=O)(=O)c1ccc(Cl)cc1)C1CCCCC1` (centres undefined) showed a melting point of 120 to 128 °C.

The compound `COc1cc(C=O)cc(OC)c1OCCO` displayed a melting point of 69 to 70 °C.

In turn, `O=[N+]([O-])c1cccc2c(OS(=O)(=O)C(F)(F)F)ccnc12` came in with a melting point of 108 °C.

`ON=Cc1ccc2c(c1)Sc1ccccc1C=C2` showed a melting point of 206 to 207 °C.

Compound `COc1ccc(CN2C(=O)C(O)(c3ccncc3Cl)c3cc(Cl)ccc32)c(OC)c1` (centres undefined) gave a melting point of 215 °C.

In the case of `O=C(Nc1cccc(S(=O)(=O)C(F)(F)F)c1)c1c(O)ccc2ccccc12`, the melting point was 179 to 180 °C.

As to `O=C1CN2Cc3ccccc3-c3cccc1c32`, the melting point lay in the range of 199 to 202 °C.

Take `CCCCc1ccc(CCCCC(N)(CO)CO)cc1`: the melting point is 92 to 94 °C.

Regarding `CN(C(=O)CCS(C)(=O)=O)c1cn(-c2cccnc2)nc1Cl`, the melting point fell in the range of 90 to 91 °C.

`CN(C)CCNC(=O)N1CCN(c2ccc([N+](=O)[O-])cc2)CC1` yielded a melting point of 115 to 120 °C.

In the case of `COc1cc2ncnc(N3CCN(C(=S)Nc4ccncc4)CC3)c2cc1OC`, the melting point lay in the range of 218 to 220 °C.

As to `O=[N+]([O-])c1cc(S(=O)c2ccccc2)ccc1Cl` (centres undefined), the melting point lay in the range of 86 to 87 °C.

`O=C1c2ccccc2-n2cnc(Br)c2[C@@H]2CCCN12`: the melting point lay within 225 to 226 °C.

`CCOC(=O)CCCCCCC1C(=O)NC(=O)N1C1(O)CCCCC1` (centres undefined): the melting point is 62 to 63 °C.

`CCOC(=O)C(=O)Nc1nc(C)c(C)s1` returned a melting point of 86 to 88 °C.

The compound `Cn1ncc2c3cc(Cl)c(Cl)cc3n(C3OC(CO)C(O)C3O)c21` (centres undefined) registered a melting point of 135 to 138 °C.

Regarding `COc1ccc(C2(O)CCC3CN(Cc4ccccc4)CCC3C2)cc1` (centres undefined), the melting point fell in the range of 38 to 40 °C.

As to `Cc1cc(N2CCN(C(=O)c3ccc(Nc4ccnc5cc(C(F)(F)F)ccc45)cc3)CC2)nc(N)n1`, the melting point fell in the range of 283 to 286 °C.

As to `COc1ccc(-c2cc(=O)n(Cc3ccc(Cl)cc3)nc2-c2ccc(OC)cc2)cc1`, the melting point was in the range of 124 to 127 °C.

For the compound `CC(=O)Nc1nc2c(s1)-c1nc(N3CCCC3=O)ncc1CC2`, the melting point was over 160 °C.

As to `CCc1cc(-c2cccnc2)nn1-c1ccc(NCc2ccc(OCCCC#N)cc2)cc1`, the melting point lay in the range of 131 to 132 °C.

The compound `COc1ccc(Cn2cnc3c(Cl)ncnc32)cc1OC` came in with a melting point of 159 to 163 °C.

`Cc1c(-c2cc(C(=O)O)c(Cl)cc2F)nn(C)c1C(F)(F)F` gave a melting point of 155 °C.

`CCS(=O)(=O)N=CNCc1cccc(-c2csc(N=C(N)N)n2)n1` returned a melting point of 201 °C.

`CCCCCCCCCCCCCCCCOCCC(O)CO` (centres undefined) showed a melting point of 60 to 61 °C.

Turning to `CC(C)c1cc(S(C)(=O)=O)c(C(C)C)cc1C#N`, the melting point fell in the range of 134 to 137 °C.

In the case of `Cc1cc(S(N)(=O)=O)ccc1NC(=O)CCl`, the melting point is 193 to 194 °C.

On to `COC(=O)c1cccc2c(CCl)c(C)sc12`, for which the melting point was in the range of 125 to 126 °C.

`N#CCOc1ccc2cc(Br)ccc2c1Br` gave a melting point of 130 to 132 °C.

As to `OC(CCCN1CC=C(c2ccc(Cl)cc2)CC1)c1ccc(Cc2ccc(Cl)cc2)cc1` (centres undefined), the melting point was in the range of 104 to 105 °C.

`OCc1ccc(C2=C(C3CCCC3)CCC2=NO)cc1`: the melting point lay within 187 to 190 °C.

In turn, `N#Cc1ccc(-c2cc(-c3ccc(C#N)cc3[N+](=O)[O-])no2)cc1` came in with a melting point of 264 to 265 °C.

Compound `Cc1nc(-c2ccc(S(N)(=O)=O)c(F)c2)c(-c2ccc(-c3cscn3)cc2)o1` yielded a melting point of 192 to 194 °C.

Compound `COc1cc(F)ccc1C(O)C1CCCCn2c1nc(-c1ccncn1)cc2=O` (racemic) showed a melting point of 235 to 237 °C.

The compound `C=C1c2ccc(OC)cc2CC(=NO)c2ccccc21` registered a melting point of 125 to 127 °C.

Consider `CC(C)(C)C(=O)Nc1ccc2c(c1)ncn1c(=O)c(C(=O)O)cnc21`, for which the melting point fell in the range of 252 to 256 °C.

The compound `CCCCNc1cccc(-c2ccnc3c(C(=O)c4cccs4)cnn23)c1` had a melting point of 87 to 91 °C.

Turning to `Cc1cc2c3c(cccc3c1)C(=O)N(O)C2=O`, the melting point was 251 to 253 °C.

`Nc1nc(-c2cc(Cl)ccc2Cl)nc(N2CCC2)n1` showed a melting point of 207 to 208 °C.

With `CN1Cc2cscc2Nc2ccccc21`, the melting point lay within 110 to 112 °C.

For `CC(C)(CCCCC(=O)CCCCC1(C(=O)O)CCC1)C(=O)O`, the melting point lay within 53 to 55 °C.

With `Cc1nncn1-c1ccc(Cl)cc1C(=O)O`, the melting point is 252 to 254 °C.

Consider `CC(O)c1ccc2c3c1ccn3C(=O)CNC2` (centres undefined), for which the melting point was in the range of 295 to 297 °C.
